Source: PMC9518264, “Design and synthesis of novel quinazolinone-based derivatives as EGFR inhibitors with antitumor activity” (Journal of Enzyme Inhibition and Medicinal Chemistry, 2022)

Columns and labels:
[1] = tested on: U251; experiment: cells; type: cell-based; conditions: Homo sapiens, U-251; U251; 10 μM; read-out: growth inhibition % (GI%)
[2] = tested on: HCT-15; experiment: cells; type: cell-based; conditions: Homo sapiens; HCT-15; 10 μM; read-out: growth inhibition % (GI%)
[3] = tested on: HCT-116; experiment: cells; type: cell-based; conditions: Homo sapiens; HCT-116; 10 μM; read-out: growth inhibition % (GI%)
[4] = tested on: HOP-62; experiment: cells; type: cell-based; conditions: Homo sapiens; HOP-62; 10 μM; read-out: growth inhibition % (GI%)
[5] = tested on: NCI-H226; experiment: cells; type: cell-based; conditions: Homo sapiens; NCI-H226; 10 μM; read-out: growth inhibition % (GI%)
[6] = tested on: SR; experiment: cells; type: cell-based; conditions: Homo sapiens, 10 μM, read-out: growth inhibition % (GI%)
[7] = tested on: A498; experiment: cells; type: cell-based; conditions: Homo sapiens; A498; 10 μM; read-out: growth inhibition % (GI%)
[8] = tested on: SNB-75; experiment: cells; type: cell-based; conditions: Homo sapiens; SNB-75; 10 μM; read-out: growth inhibition % (GI%)
[9] = tested on: HT29; experiment: cells; type: cell-based; conditions: Homo sapiens, HT-29; HT29; 10 μM; read-out: growth inhibition % (GI%)
[10] = tested on: NCI-H460; experiment: cells; type: cell-based; conditions: Homo sapiens; NCI-H460; 10 μM; read-out: growth inhibition % (GI%)
[11] = tested on: OVCAR-4; experiment: cells; type: cell-based; conditions: Homo sapiens; OVCAR-4; 10 μM; read-out: growth inhibition % (GI%)
[12] = tested on: MOLT-4; experiment: cells; type: cell-based; conditions: Homo sapiens; MOLT-4; 10 μM; read-out: growth inhibition % (GI%)
[13] = tested on: SK-MEL-2; experiment: cells; type: cell-based; conditions: Homo sapiens; SK-MEL-2; 10 μM; read-out: growth inhibition % (GI%)
[14] = tested on: EKVX; experiment: cells; type: cell-based; conditions: Homo sapiens, 10 μM, read-out: growth inhibition % (GI%)
[15] = tested on: IGROV1; experiment: cells; type: cell-based; conditions: Homo sapiens, IGROV-1; IGROV1; 10 μM; read-out: growth inhibition % (GI%)
[16] = tested on: DU-145; experiment: cells; type: cell-based; conditions: Homo sapiens; DU-145; 10 μM; read-out: growth inhibition % (GI%)
[17] = tested on: PC-3; experiment: cells; type: cell-based; conditions: Homo sapiens; PC-3; 10 μM; read-out: growth inhibition % (GI%)
[18] = tested on: UACC-257; experiment: cells; type: cell-based; conditions: Homo sapiens; UACC-257; 10 μM; read-out: growth inhibition % (GI%)
[19] = tested on: TK-10; experiment: cells; type: cell-based; conditions: Homo sapiens; TK-10; 10 μM; read-out: growth inhibition % (GI%)
[20] = tested on: T-47D; experiment: cells; type: cell-based; conditions: Homo sapiens, T47D; T-47D; 10 μM; read-out: growth inhibition % (GI%)
[21] = tested on: COLO-205; experiment: cells; type: cell-based; conditions: Homo sapiens; COLO-205; 10 μM; read-out: growth inhibition % (GI%)
[22] = tested on: MDA-MB-231/ATCC; experiment: NCI 60 cell line antiproliferative screening (SRB), Breast cancer; type: cell-based; conditions: Homo sapiens, MDA-MB-231, read-out: growth inhibition % (GI%)
[23] = tested on: NCI/ADR-RES; experiment: cells; type: cell-based; conditions: Homo sapiens, 10 μM, read-out: growth inhibition % (GI%)
[24] = tested on: SK-OV-3; experiment: cells; type: cell-based; conditions: Homo sapiens; SK-OV-3; 10 μM; read-out: growth inhibition % (GI%)
[25] = tested on: NCI-H522; experiment: cells; type: cell-based; conditions: Homo sapiens; NCI-H522; 10 μM; read-out: growth inhibition % (GI%)
[26] = tested on: MCF7; experiment: cells; type: cell-based; conditions: Homo sapiens; MCF7; 10 μM; read-out: growth inhibition % (GI%)
[27] = tested on: MDA-MB-435; experiment: cells; type: cell-based; conditions: Homo sapiens; MDA-MB-435; 10 μM; read-out: growth inhibition % (GI%)
[28] = tested on: UACC-62; experiment: cells; type: cell-based; conditions: Homo sapiens; UACC-62; 10 μM; read-out: growth inhibition % (GI%)
[29] = tested on: LOX IMIV; experiment: cells; type: cell-based; conditions: Homo sapiens, 60 cell; LOX IMIV; 10 μM; read-out: growth inhibition % (GI%)
[30] = tested on: SK-MEL-28; experiment: cells; type: cell-based; conditions: Homo sapiens; SK-MEL-28; 10 μM; read-out: growth inhibition % (GI%)
[31] = tested on: MDA-MB-468; experiment: NCI 60 cell line antiproliferative screening (SRB), Breast cancer; conditions: Homo sapiens, MDA-MB-468, read-out: growth inhibition % (GI%)
[32] = tested on: HOP-92; experiment: cells; type: cell-based; conditions: Homo sapiens; HOP-92; 10 μM; read-out: growth inhibition % (GI%)
[33] = tested on: HS 578T; experiment: cells; type: cell-based; conditions: Homo sapiens; HS 578T; 10 μM; read-out: growth inhibition % (GI%)
[34] = tested on: 786-0; experiment: cells; type: cell-based; conditions: Homo sapiens; 786-0; 10 μM; read-out: growth inhibition % (GI%)
[35] = tested on: SNB-19; experiment: cells; type: cell-based; conditions: Homo sapiens; SNB-19; 10 μM; read-out: growth inhibition % (GI%)
[36] = tested on: SF-539; experiment: cells; type: cell-based; conditions: Homo sapiens; SF-539; 10 μM; read-out: growth inhibition % (GI%)
[37] = tested on: KM12; experiment: cells; type: cell-based; conditions: Homo sapiens; KM12; 10 μM; read-out: growth inhibition % (GI%)
[38] = tested on: OVCAR-3; experiment: NCI 60 cell line antiproliferative screening (SRB), Ovarian cancer; conditions: Homo sapiens, OVCAR-3, read-out: growth inhibition % (GI%)
[39] = tested on: RPMI-8226; experiment: cells; type: cell-based; conditions: Homo sapiens; RPMI-8226; 10 μM; read-out: growth inhibition % (GI%)
[40] = tested on: panel of 60 tumour cell lines; experiment: NCI 60 cell line antiproliferative screening (SRB), whole panel or subpanels (means, ranges, words); type: cell-based, human; conditions: Homo sapiens, 60 cell, mean over the cell line panel; 10 μM; read-out: Mean growth inhibition % (mean GI%)
[41] = tested on: A549/ATCC; experiment: cells; type: cell-based; conditions: Homo sapiens; A549/ATCC; 10 μM; read-out: growth inhibition % (GI%)
[42] = tested on: OVCAR-5; experiment: cells; type: cell-based; conditions: Homo sapiens; OVCAR-5; 10 μM; read-out: growth inhibition % (GI%)
[43] = tested on: NCI-H322M; experiment: cells; type: cell-based; conditions: Homo sapiens, 10 μM, read-out: growth inhibition % (GI%)
[44] = tested on: HCC-2998; experiment: cells; type: cell-based; conditions: Homo sapiens; HCC-2998; 10 μM; read-out: growth inhibition % (GI%)
[45] = tested on: HL-60(TB); experiment: cells; type: cell-based; conditions: Homo sapiens; HL-60(TB); 10 μM; read-out: growth inhibition % (GI%)
[46] = tested on: BT-549; experiment: cells; type: cell-based; conditions: Homo sapiens; BT-549; 10 μM; read-out: growth inhibition % (GI%)

O=C(CSc1nc2ccccc2c(=O)n1-c1ccccc1)NN=Cc1ccc(N2CCCCC2)cc1 [6g, 2-((4-oxo-3-phenyl-3,4-dihydroquinazolin-2-yl)thio)-N'-(4-(piperidin-1-yl)benzylidene) acetohydrazide]
inhibition at 10 µM [1]: < 15%
inhibition at 10 µM [2]: 16.2%
inhibition at 10 µM [3]: 15.5%
inhibition at 10 µM [4]: < 15%
inhibition at 10 µM [5]: < 15%
inhibition at 10 µM [6]: 24.7%
inhibition at 10 µM [7]: < 15%
inhibition at 10 µM [8]: 19.9%
inhibition at 10 µM [9]: < 15%
inhibition at 10 µM [10]: < 15%
inhibition at 10 µM [11]: < 15%
inhibition at 10 µM [12]: 28.5%
inhibition at 10 µM [13]: < 15%
inhibition at 10 µM [14]: 20.4%
inhibition at 10 µM [15]: < 15%
inhibition at 10 µM [16]: < 15%
inhibition at 10 µM [17]: 18.5%
inhibition at 10 µM [18]: < 15%
inhibition at 10 µM [19]: < 15%
inhibition at 10 µM [20]: < 15%
inhibition at 10 µM [21]: < 15%
inhibition at 10 µM [22]: < 15%
inhibition at 10 µM [23]: < 15%
inhibition at 10 µM [24]: < 15%
inhibition at 10 µM [25]: 15.3%
inhibition at 10 µM [26]: 16.2%
inhibition at 10 µM [27]: < 15%
inhibition at 10 µM [28]: < 15%
inhibition at 10 µM [29]: < 15%
inhibition at 10 µM [30]: < 15%
inhibition at 10 µM [31]: < 15%
inhibition at 10 µM [32]: 19.5%
inhibition at 10 µM [33]: < 15%
inhibition at 10 µM [34]: < 15%
inhibition at 10 µM [35]: < 15%
inhibition at 10 µM [36]: < 15%
inhibition at 10 µM [37]: < 15%
inhibition at 10 µM [38]: < 15%
inhibition at 10 µM [39]: 17.6%
inhibition at 10 µM [40]: 4.28%
inhibition at 10 µM [41]: 15.1%
inhibition at 10 µM [42]: < 15%
inhibition at 10 µM [43]: < 15%
inhibition at 10 µM [44]: < 15%
inhibition at 10 µM [45]: < 15%
inhibition at 10 µM [46]: < 15%
